Experiment: Additional study on 24 people with excess weight, formulations given orally, two sachets/day for one month, weight loss
Type: in vivo, human
Settings: oral route
Protocol: An additional study was carried out on 24 people with excess weight, to whom the formulations of the following table were administered by the oral route, in an amount of two sachets/day for one month, without changing their dietary habits.

For Conjugated linoleic acid, the “weight loss observed, significance in words” value was “not significant” and the “Weight loss observed (as % by weight)” value (dietary habits unchanged) was −1.8 (N.S.) % by weight.

Source: patent US20100041679A1, “ORAL DIETING COMPOSITION COMPRISING CONJUGATED LINOLEIC ACID AND CAFFEINE” (Institut Phytoceutic, priority 2004, published 2010)
